The structures appear in SMILES notation.

This experiment concerns the target T1, Human TRPC6 (Homo sapiens, UniProt Q9Y210).
T1 construct: expressed in transfected cells
T1 sequence (Q9Y210 1-931): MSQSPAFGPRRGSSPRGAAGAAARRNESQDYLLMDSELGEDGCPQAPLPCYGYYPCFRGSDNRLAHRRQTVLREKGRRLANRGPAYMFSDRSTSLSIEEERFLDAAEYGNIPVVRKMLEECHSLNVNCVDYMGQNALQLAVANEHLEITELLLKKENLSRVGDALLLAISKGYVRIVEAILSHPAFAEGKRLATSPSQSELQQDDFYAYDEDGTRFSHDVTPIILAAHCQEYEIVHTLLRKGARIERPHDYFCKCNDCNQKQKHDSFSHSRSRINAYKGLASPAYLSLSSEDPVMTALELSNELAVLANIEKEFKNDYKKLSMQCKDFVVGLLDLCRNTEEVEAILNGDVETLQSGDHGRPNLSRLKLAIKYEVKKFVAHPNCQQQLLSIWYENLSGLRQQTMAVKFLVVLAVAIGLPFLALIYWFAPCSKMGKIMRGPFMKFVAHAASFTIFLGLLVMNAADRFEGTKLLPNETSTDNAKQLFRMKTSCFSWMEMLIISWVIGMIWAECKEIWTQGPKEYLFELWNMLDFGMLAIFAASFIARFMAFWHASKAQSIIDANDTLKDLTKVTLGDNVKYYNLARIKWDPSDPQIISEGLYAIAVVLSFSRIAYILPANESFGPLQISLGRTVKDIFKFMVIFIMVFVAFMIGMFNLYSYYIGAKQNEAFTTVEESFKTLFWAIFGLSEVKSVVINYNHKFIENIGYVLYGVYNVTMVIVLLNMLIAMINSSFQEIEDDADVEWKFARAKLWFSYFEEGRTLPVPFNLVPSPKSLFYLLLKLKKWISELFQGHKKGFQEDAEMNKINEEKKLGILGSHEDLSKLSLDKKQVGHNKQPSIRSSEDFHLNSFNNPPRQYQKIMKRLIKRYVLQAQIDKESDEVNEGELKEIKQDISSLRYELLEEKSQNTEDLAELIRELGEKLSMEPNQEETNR
Briefly: Evaluation of TRPC6 channel inhibitory activity (1), FLIPR Calcium 5 Assay Kit, OAG stimulation (Compound Nos. 1-1293). Format: cell-based. As to conditions: Human TRPC6 stably-expressing cells, OAG 30 μM, FLIPR Calcium 5 Assay Kit; read-out: Inhibitory activity (pIC50 class) (converted). The gist of the method: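 Calcium influx read by FLIPR fluorescence in cells stably expressing human TRPC6, dye-loaded 30 min. Compounds preincubated 20 min, then OAG stimulation at 30 μM final. Inhibition fitted by four-parameter logistic regression to give pIC50, reported as +/++/+++ categories.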
Take `Cn1nc(-c2ccccc2)cc1Oc1cc(C#N)ccc1-c1ccc(C(N)C(=O)O)cn1` (centres unmarked) [compound 428, 2-amino-2-[6-[4-cyano-2-(2-methyl-5-phenylpyrazol-3-yl)oxyphenyl]pyridin-3-yl]acetic acid]: the IC50 is 10 to 1000 nM. As for `N#Cc1ccc(-c2ccc(C(O)CN)cc2)c(Sc2cnnc(N3CCOCC3)c2)c1` (centres unmarked) [compound 1238, 4-[4-(2-amino-1-hydroxyethyl)phenyl]-3-(6-morpholin-4-ylpyridazin-4-yl)sulfanylbenzonitrile], the IC50 is over 1000 nM. Then `N#Cc1ccc(-c2ccc([C@@H](O)CN)cn2)c(Cn2cnc(-c3ccccc3)c2)c1` [compound 1138, 4-[5-[(1R)-2-amino-1-hydroxyethyl]pyridin-2-yl]-3-[(4-phenylimidazol-1-yl)methyl]benzonitrile], with 10 to 1000 nM; and `Cc1cc(Oc2cc(C#N)ccc2-c2ccc(C3(CN)COC3)cn2)cc(N2CCOCC2)n1` [compound 613, 4-[5-[3-(aminomethyl)oxetan-3-yl]pyridin-2-yl]-3-(2-methyl-6-morpholin-4-ylpyridin-4-yl)oxybenzonitrile], with 10 to 1000 nM. In the case of `Cn1nc(N2CCOCC2)cc1Oc1cc(C#N)ccc1-c1ccc(CN)cn1` [compound 773, 4-[5-(aminomethyl)pyridin-2-yl]-3-(2-methyl-5-morpholin-4-ylpyrazol-3-yl)oxybenzonitrile], the IC50 is under 10 nM.

For `CN(C)c1cc(Oc2cc(C#N)ccc2-c2ncc([C@H](F)CN)cn2)n(C)n1` [compound 905, 4-[5-[(1S)-2-amino-1-fluoroethyl]pyrimidin-2-yl]-3-[5-(dimethylamino)-2-methylpyrazol-3-yl]oxybenzonitrile], the IC50 is under 10 nM. In the case of `CN(C)c1nnc(Oc2cc(C#N)ccc2-c2ncc(CCN)cn2)s1` [compound 727, 4-[5-(2-aminoethyl)pyrimidin-2-yl]-3-[[5-(dimethylamino)-1,3,4-thiadiazol-2-yl]oxy]benzonitrile], the IC50 is 10 to 1000 nM.

As to `Cc1nc(Oc2cc(C#N)ccc2-n2cc([C@@H](O)CN)cn2)cc(-c2cccc(C(F)(F)F)c2)n1` [compound 353, 4-[4-[(1R)-2-amino-1-hydroxyethyl]pyrazol-1-yl]-3-[2-methyl-6-[3-(trifluoromethyl)phenyl]pyrimidin-4-yl]oxybenzonitrile], the IC50 was 10 to 1000 nM. Consider `Cc1c(Oc2cc(C#N)ccc2-c2ncc(CCN)cn2)cnn1-c1ccccn1` [compound 830, 4-[5-(2-aminoethyl)pyrimidin-2-yl]-3-(5-methyl-1-pyridin-2-ylpyrazol-4-yl)oxybenzonitrile], for which the IC50 is 10 to 1000 nM. The figure for `Cc1nc(Oc2cc(C#N)ccc2-c2ccc(CCN)cc2)cc(N2CCCC(F)(F)C2)n1` [Compound 19, 4-[4-(2-aminoethyl)phenyl]-3-[6-(3,3-difluoropiperidin-1-yl)-2-methylpyrimidin-4-yl]oxybenzonitrile] is 10 to 1000 nM. As to `Cn1nc(-c2cnccn2)cc1Oc1cc(C#N)ccc1-c1ncc(CCN)cn1` [compound 950, 4-[5-(2-aminoethyl)pyrimidin-2-yl]-3-(2-methyl-5-pyrazin-2-ylpyrazol-3-yl)oxybenzonitrile], the IC50 was under 10 nM. Turning to `Cn1nc(C2CC2)cc1Oc1cc(C#N)ccc1-c1ccc(N2CC[C@@H](F)[C@H](N)C2)cn1` [compound 869, 4-[5-[(4R)-3-amino-4-fluoropiperidin-1-yl]pyridin-2-yl]-3-(5-cyclopropyl-2-methylpyrazol-3-yl)oxybenzonitrile], the IC50 was over 1000 nM. Then `Cc1nc(Oc2cc(C#N)ccc2-c2ccc(C3CNC3)cc2)cc(N2CCOCC2)n1` [Compound 52, 4-[4-(azetidin-3-yl)phenyl]-3-(2-methyl-6-morpholin-4-ylpyrimidin-4-yl)oxybenzonitrile], with 10 to 1000 nM; and `Cc1nc(C2CCOCC2)cn1Cc1cc(C#N)ccc1-c1ncc([C@H](O)CN)cn1` [compound 1166], with over 1000 nM. Turning to `Cn1nc(-c2cccnc2)cc1Oc1cc(C#N)ccc1-c1ccc(CCN)cc1` [Compound 163, 4-[4-(2-aminoethyl)phenyl]-3-(2-methyl-5-pyridin-3-ylpyrazol-3-yl)oxybenzonitrile], the IC50 is 10 to 1000 nM. Consider `Cc1nc(Sc2cc(C#N)ccc2-c2ncc(CCN)cn2)cc(N2CCCC2)n1` [compound 1256, 4-[5-(2-aminoethyl)pyrimidin-2-yl]-3-(2-methyl-6-pyrrolidin-1-ylpyrimidin-4-yl)sulfanylbenzonitrile], for which the IC50 is 10 to 1000 nM. As for `N#Cc1ccc(-c2ncc(CCN)cn2)c(Oc2cc(C3CC3)nn2CC(F)(F)F)c1` [compound 379, 4-[5-(2-aminoethyl)pyrimidin-2-yl]-3-[5-cyclopropyl-2-(2,2,2-trifluoroethyl)pyrazol-3-yl]oxybenzonitrile], the IC50 is under 10 nM. Then `Cn1nc(-c2cncnc2)cc1Oc1cc(C#N)ccc1-c1ncc(CN)cn1` [compound 930, 4-[5-(aminomethyl)pyrimidin-2-yl]-3-(2-methyl-5-pyrimidin-5-ylpyrazol-3-yl)oxybenzonitrile], with 10 to 1000 nM. With `Cc1nc(OCC2CCCCC2)cc(Oc2cc(C#N)ccc2-c2ccc(CCN)cc2)n1` [Compound 39, 4-[4-(2-aminoethyl)phenyl]-3-[6-(cyclohexylmethoxy)-2-methylpyrimidin-4-yl]oxybenzonitrile], the IC50 is over 1000 nM.

Consider `Cn1nc(C#N)cc1Oc1cc(C#N)ccc1-c1ccc(CCN)cn1` [compound 964, 5-[2-[5-(2-aminoethyl)pyridin-2-yl]-5-cyanophenoxy]-1-methylpyrazole-3-carbonitrile], for which the IC50 was 10 to 1000 nM.

Consider `Cc1cc(Oc2cc(C#N)ccc2-c2ccc(C(N)CO)cn2)cc(N2CCOCC2)n1` (centres unmarked) [compound 412, 4-[5-(1-amino-2-hydroxyethyl)pyridin-2-yl]-3-(2-methyl-6-morpholin-4-ylpyridin-4-yl)oxybenzonitrile], for which the IC50 was 10 to 1000 nM. Take `Cc1ncc(-c2cc(Oc3cc(C#N)ccc3-c3ncc(CN)cn3)n(C)n2)s1` [compound 962, 4-[5-(aminomethyl)pyrimidin-2-yl]-3-[2-methyl-5-(2-methyl-1,3-thiazol-5-yl)pyrazol-3-yl]oxybenzonitrile]: the IC50 is 10 to 1000 nM. Turning to `Cc1cc(Oc2cc(C#N)ccc2-c2ccc([C@H](O)CN)cn2)cc(N2C[C@@H]3C[C@H]2CO3)n1` [compound 527, 4-[5-[(1S)-2-amino-1-hydroxyethyl]pyridin-2-yl]-3-[2-methyl-6-[(1S,4S)-2-oxa-5-azabicyclo[2.2.1]heptan-5-yl]pyridin-4-yl]oxybenzonitrile], the IC50 is under 10 nM. In the case of `Cc1nc(Oc2cc(C#N)ccc2-c2ccc(CCN)cc2)cc(-c2ccn(C)c2)n1` [Compound 29, 4-[4-(2-aminoethyl)phenyl]-3-[2-methyl-6-(1-methylpyrrol-3-yl)pyrimidin-4-yl]oxybenzonitrile], the IC50 was 10 to 1000 nM. In the case of `Cn1nc(-c2ccccn2)cc1Oc1cc(C#N)ccc1-c1cc(CN)cn2cnnc12` [compound 732, 4-[6-(aminomethyl)-[1,2,4]triazolo[4,3-a]pyridin-8-yl]-3-(2-methyl-5-pyridin-2-ylpyrazol-3-yl)oxybenzonitrile], the IC50 is 10 to 1000 nM. Take `Cc1cc(Oc2cc(C#N)ccc2-c2ccc(C(=O)CN)cc2)cc(-c2ccccc2)n1` [Compound 201, 4-[4-(2-aminoacetyl)phenyl]-3-(2-methyl-6-phenylpyridin-4-yl)oxybenzonitrile]: the IC50 is over 1000 nM. Take `Cc1nc(Oc2cc(C#N)ccc2-c2ccc([C@H](O)CN)cn2)cc(N2CCOC(C)(C)C2)n1` [compound 560, 4-[5-[(1S)-2-amino-1-hydroxyethyl]pyridin-2-yl]-3-[6-(2,2-dimethylmorpholin-4-yl)-2-methylpyrimidin-4-yl]oxybenzonitrile]: the IC50 is 10 to 1000 nM. For the compound `Cc1cc(Oc2cc(C#N)ccc2-c2ccc(C3(O)CNC3)cn2)cc(N2CCOCC2)n1` [compound 537, 4-[5-(3-hydroxyazetidin-3-yl)pyridin-2-yl]-3-(2-methyl-6-morpholin-4-ylpyridin-4-yl)oxybenzonitrile], the IC50 is over 1000 nM. With `Cc1nc(Oc2cc(C#N)ccc2-c2ncc(CCN)cn2)cc(N(C)C(C)C)n1` [compound 857, 4-[5-(2-aminoethyl)pyrimidin-2-yl]-3-[2-methyl-6-[methyl(propan-2-yl)amino]pyrimidin-4-yl]oxybenzonitrile], the IC50 was under 10 nM.

For the origin of these results see US20230167073A1 (Teijin Pharma Limited, priority 2020, published 2023).
